Assay: Cytotoxicity against Balb/C mouse macrophages assessed as cell viability after 24 hrs by MTT assay
Assay type: cell-based
Conditions: Macrophage

For `C[C@]12CC[C@H](OC(=O)c3ccc(O)cc3)CC1=CC[C@@H]1[C@@H]2CC[C@]2(C)NC(=O)CC[C@@H]12`, which LC50 is on record?
The LC50 was 75 µM.

For `Cc1ccc(C(=O)O[C@H]2CC[C@@]3(C)C(=CC[C@@H]4[C@@H]3CC[C@]3(C)NC(=O)CC[C@@H]43)C2)cc1`, which LC50 is on record?
Its LC50 is 22.8 µM.

Which LC50 does the source give for `C[C@]12CC[C@H](OC(=O)CCl)CC1=CC[C@@H]1[C@@H]2CC[C@]2(C)NC(=O)CC[C@@H]12` here?
The LC50 was 94.1 µM.

With `C[C@]12CC[C@H](OC(=O)c3ccc(Cl)cc3)CC1=CC[C@@H]1[C@@H]2CC[C@]2(C)NC(=O)CC[C@@H]12` as the compound, how does the LC50 read?
The LC50 was 100 µM.

With `COc1ccc(C(=O)O[C@H]2CC[C@@]3(C)C(=CC[C@@H]4[C@@H]3CC[C@]3(C)NC(=O)CC[C@@H]43)C2)cc1` as the compound, how does the LC50 read?
Its LC50 is 8.4 µM.

Which LC50 does the source give for `C[C@]12CC[C@H](OC(=O)c3ccc([N+](=O)[O-])cc3)CC1=CC[C@@H]1[C@@H]2CC[C@]2(C)NC(=O)CC[C@@H]12` here?
Its LC50 is 27.8 µM.

For `CC(C)(C)NC(=O)[C@H]1CC[C@H]2[C@@H]3CC[C@H]4NC(=O)C=C[C@]4(C)[C@H]3CC[C@]12C` [FINASTERIDE], which LC50 is on record?
Its LC50 is 28.2 µM.

With `C[C@]12CC[C@H](OC(=O)c3ccc(N)cc3)CC1=CC[C@@H]1[C@@H]2CC[C@]2(C)NC(=O)CC[C@@H]12` as the compound, how does the LC50 read?
The LC50 was 25.1 µM.

For `C[C@]12CC[C@H](OC(=O)c3ccccc3)CC1=CC[C@@H]1[C@@H]2CC[C@]2(C)NC(=O)CC[C@@H]12`, which LC50 is on record?
The LC50 was 43.6 µM.

With `C[C@]12CC[C@H](OC(=O)COc3ccccc3)CC1=CC[C@@H]1[C@@H]2CC[C@]2(C)NC(=O)CC[C@@H]12` as the compound, how does the LC50 read?
Its LC50 is 11.7 µM.

Assay: Cytotoxicity against Balb/C mouse macrophages assessed as cell mortality at 0.01 to 5 ug/ml after 24 hrs by MTT assay
Conditions: not given

Which mortality at 24 h does the source give for `C[C@]12CC[C@H](OC(=O)c3ccc(O)cc3)CC1=CC[C@@H]1[C@@H]2CC[C@]2(C)NC(=O)CC[C@@H]12` here?
Its mortality at 24 h is 20%.

Source: ChEMBL document CHEMBL1165859, “Synthesis, antiproliferative, acute toxicity and assessment of antiandrogenic activities of some newly synthesized steroidal lactams” (Eur J Med Chem, 2010)
